What was measured:
Format in all cases: functional
Set-up in all cases: scale not given here
[1] = tested on: Schistosoma mansoni
[2] = tested on: Schistosoma mansoni; remark: listed apart in the source
[3] = tested on: Schistosoma mansoni; remark: listed apart in the source

Row | SMILES | Toxicity [1] | Toxicity [2] | Toxicity [3]
1 | Cc1ccc(OCCCCCCNCCO)c(C)c1 | 0 | 0 | 0
2 | CC(=O)c1sc(NC(=O)Nc2ccc(C)cc2C)nc1C | 0 | 0 | 0
3 | COc1ccccc1C(=O)ON=C(N)Cc1cccc2ccccc12 | 3 | 1 | 3
4 | O=C(Nc1ccc(-c2nc3cc(NC(=O)c4ccc(Cl)cc4)ccc3[nH]2)cc1)c1ccc(Cl)cc1 | 0 | 1 | 0
5 | CCOC(=O)c1cn(CC)c2cc(N3CCCCC3)c(F)cc2c1=O | 0 | 0 | 0
6 | Cc1ccc2nc(C)cc(Nc3cccc(C(F)(F)F)c3)c2c1.Cl | 3 | 2 | 2
7 | CC(C)CNC(=O)c1c(N)n(CCc2ccccc2F)c2nc3ccccc3nc12 | 2 | 0 | 2
8 | N=c1c2ccccc2nnn1-c1cccc(C(F)(F)F)c1 | 0 | 0 | 0
9 | O=C(Nc1ccc(Cl)cc1C(=O)Nc1ccncc1)c1ccc(Cl)cc1Cl | 0 | 0 | 0
10 | COc1ccc(-c2nc(N3CCN(C(=O)C4CCCCC4)CC3)c3c4c(sc3n2)CCCC4)cc1 | 0 | 0 | 0
11 | N=c1n(CCN2CCCCC2)c2ccccc2n1CC(=O)c1ccc(Cl)c(Cl)c1 | 4 | 3 | 4
12 | CCCCCC(=O)N1c2ccccc2N=C2CC(c3ccc(OC)c(OC)c3)CC(O)=C2C1c1ccc(C(F)(F)F)cc1 (centres undefined) | 0 | 0 | 0
13 | CN1CCN(c2c3c(c(C#N)c4nc5ccccc5n24)CCC3)CC1 | 0 | 0 | 0
14 | COc1cccc(C2(C)Nc3ccccc3-c3nc4ccccc4n32)c1 (centres undefined) | 0 | 0 | 0
15 | CCOc1ccc2nc(C)cc(Nc3ccc(N(C)C)cc3)c2c1.Cl | 4 | 2 | 4
16 | Cc1cc(C=C2SC(=Nc3ccccc3)N(C3CCCC3)C2=O)c(C)n1-c1ccc(Cl)cc1 | 0 | 0 | 0
17 | O=C1c2ccccc2C2=Nc3ccccc3SC(c3cccc(F)c3)C12 (centres undefined) | 1 | 1 | 1
18 | CCn1c(CN2CCN(Cc3ccccc3)CC2)nc2cc(NC(=O)c3cccs3)ccc21 | 0 | 0 | 0
19 | Cc1cc(=O)oc2c1ccc1oc(C(=O)c3ccccc3)c(C)c12 | 0 | 0 | 0
20 | Cc1ccccc1OCCSc1nc2ccc(NC(=O)c3ccccc3)cc2s1 | 0 | 0 | 0
21 | CCOc1ccc2nc(C)cc(Nc3ccc(Br)cc3)c2c1 | 4 | 2 | 4
22 | COc1ccc(C(=O)C(CCC(CNC(C)(C)C)C(=O)c2ccc(OC)cc2)CNC(C)(C)C)cc1 (centres undefined) | 4 | 0 | 3
23 | Cc1ccc(-c2cc3nc4c(c(O)n3n2)CCCC4)cc1 | 0 | 0 | 0

Row | SMILES | Toxicity [1] | Toxicity [2] | Toxicity [3]
24 | CCOC(=O)c1cnc2ccc(OC)cc2c1NCc1ccccc1 | 1 | 1 | 0
25 | COc1ccc(CCN2C(=O)c3[nH]nc(-c4cc(Cl)c(C)cc4O)c3C2c2ccccc2F)cc1 (centres undefined) | 0 | 0 | 0
26 | Cc1cc(NC(=O)c2cccc(C(F)(F)F)c2)n(-c2nc(-c3ccc4c(c3)OCO4)cs2)n1 | 3 | 0 | 0
27 | Cc1ccc(C)c(Cn2c(N3CCC(C(=O)NCc4cccs4)CC3)nc3ccccc32)c1 | 0 | 0 | 0
28 | O=C(CCc1ccccc1)c1ccccc1OCC(O)CN1CCCCC1 (centres undefined) | 4 | 1 | 0
29 | Brc1ccc(Nc2nc3ccccc3nc2Nc2ccc(Br)cc2)cc1 | 4 | 3 | 4
30 | Cc1ccc2cc3c(N)c4c(C)ccc(C)c4nc3nc2c1 | 0 | 0 | 0
31 | O=C(NC1CCN(Cc2ccccc2)CC1)c1cc(C(=O)NC2CCN(Cc3ccccc3)CC2)cc(C(=O)NC2CCN(Cc3ccccc3)CC2)c1 | 0 | 0 | 0
32 | CCN1CCN(Cc2ccc(NC(=O)c3cc4ccc5cccnc5c4[nH]3)cc2)CC1 | 0 | 0 | 1
33 | CCC(O)c1ccc(Br)cc1NC(=O)c1cccc(Cl)c1 (centres undefined) | 0 | 0 | 0
34 | CCOc1c(Cl)cc(CNC(C)C(O)c2ccccc2)cc1OC (centres undefined) | 0 | 0 | 0
35 | COc1ccc(C(C)=O)cc1N1C(=O)C2C(C1=O)C1(c3ccccc3)C(=O)C2(c2ccccc2)C(c2ccc(C)cc2)=C1c1ccc(C)cc1 (centres undefined) | 0 | 0 | 0
36 | O=C(NC1CCN(Cc2ccccc2)CC1)c1cc2nc(-c3ccc(Cl)s3)cc(C(F)(F)F)n2n1 | 4 | 0 | 4
37 | CCCCCCc1cc2cc(-c3nc4ccccc4[nH]3)c(=Nc3ccccc3C)oc2cc1O | 3 | 0 | 3
38 | COc1ccc(Nc2cc(C)nc(NCc3ccccc3)n2)cc1 | 3 | 2 | 3
39 | CCOC(=O)c1cnc2c(C)cccc2c1Nc1ccc(C(C)=O)cc1 | 0 | 0 | 0
40 | COc1ccc(NC(=O)C2c3ccccc3C(=O)N(CC(C)C)C2c2cccs2)cc1 (centres undefined) | 0 | 1 | 0
41 | CN1CCN(c2ccc(Nc3c4ccccc4nc4ccccc34)cc2)CC1 | 4 | 2 | 4
42 | O=C(Nc1ccc(Cl)c(Cl)c1)Nc1ccc(Cl)c(Cl)c1 | 4 | 3 | 3
43 | COc1nc(Nc2ccc(C(C)C)cc2)nc(OC)n1 | 0 | 0 | 0
44 | COCCn1c(C)nc2ccccc2c1=O | 0 | 0 | 0
45 | Cc1cc(C)cc(Nc2cc(C)nc3nc(C(F)(F)F)nn23)c1 | 0 | 0 | 0
46 | Cc1cc(Nc2ccc(OCc3ccccc3)cc2)nc2cc(O)ccc12 | 4 | 2 | 3

Row | SMILES | Toxicity [1] | Toxicity [2] | Toxicity [3]
47 | CCC1(C)CC(CCNCc2ccccc2O)(c2ccc(C)cc2)CCO1 (centres undefined) | 4 | 2 | 2
48 | CCCCC(O)(c1ccc(Cl)cc1)C(CN1CCOCC1)c1ccc(Cl)cc1.Cl (centres undefined) | 4 | 0 | 0
49 | CCc1ccc(Nc2cc(C)nc3nc(C)nn23)cc1 | 0 | 0 | 0
50 | COc1ccc(-c2nc(NC(=O)CS(=O)(=O)c3ccc(F)cc3)sc2C)cc1 | 0 | 0 | 0
51 | Cc1cc(Nc2ccc(C)c(Cl)c2)n2nc(C(F)(F)F)nc2n1 | 0 | 0 | 0
52 | COc1cc2cc(C(=O)Nc3ccccc3)c(N)nc2cc1OC | 2 | 0 | 0
53 | CC1CC2=C(CC1CNCCCN(C)C)C(C)(C)CCC2 (centres undefined) | 4 | 4 | 4
54 | CCOc1ccc(-c2nonc2NC(=O)c2cccc(C)c2)cc1OCC | 0 | 0 | 0
55 | O=C(Nc1ccc(-c2nc3ccccc3[nH]2)cc1)c1ccc(Cl)c(Cl)c1 | 0 | 0 | 0
56 | COc1ccc(C=C2SC(Nc3ccc(F)cc3)=NC2=O)c(OC)c1 | 0 | 0 | 0
57 | Cc1ccc(CSCc2ccc(C(=O)NC3CC3)o2)cc1 | 0 | 0 | 0
58 | FC(F)(F)c1cccc(CNC2CCN(CCc3ccccc3)CC2)c1 | 0 | 0 | 0
59 | CCCCNCC(O)(c1ccc(Cl)cc1)c1ccc(Cl)cc1 | 0 | 0 | 0
60 | CCOc1ccc(C2N(C)c3ccccc3N2C)cc1 | 0 | 2 | 0
61 | COc1ccc(-c2cn3c(C(=O)Nc4ccccc4Cl)c(-c4ccccc4)c4c3n2CCCC4)cc1 | 0 | 0 | 0
62 | Cl.Cn1c(=O)n(C)c2cc(CNCCNc3ccnc4cc(Cl)ccc34)ccc21 | 1 | 0 | 1
63 | COc1ccc(C2C(C(=O)Nc3cccc(OC)c3)c3ccccc3C(=O)N2C2CCCCC2)cc1 (centres undefined) | 0 | 0 | 0
64 | O=c1c2c([nH]c3ccccc13)CCCC2 | 0 | 0 | 0
65 | COc1ccc2c(c1)OC(O)(C(F)(F)C(F)(F)F)CC2=O (centres undefined) | 0 | 0 | 0
66 | CCOc1ccc(-n2cc(-c3ccccc3)c3c(SCc4cc(C)ccc4C)ncnc32)cc1 | 0 | 0 | 0
67 | O=C(Nc1ccccc1O)c1ccc(-c2ccc(Cl)cc2Cl)o1 | 0 | 0 | 0
68 | COC(=O)c1ccc(Cl)c2c1C1C=CCC1C(c1cccc3ccccc13)N2 (centres undefined) | 0 | 0 | 0

Source: ChEMBL document CHEMBL2363022, “Malaria Box Schistosomiasis Screening Data” (2013)
